Measured values reported in PubChem BioAssay (NCI).
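In this assay, cells in 96-well plates receive the compound at five concentrations for 48 hours. Endpoints are linearly interpolated between the surrounding concentrations. TGI: total growth inhibition.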 Where a SMILES comes first, the peptide text is derived from it. The star is where a group is joined. Boc = CC(C)(C)OC(=O)*; Bn = c1ccc(C*)cc1

test system: KM12 colon; test: DTP human tumour cell line panel, 48 h

SMILES | TGI [µM]
CCN(CC)Cc1ccc(C(=S)Nc2ccc(Cl)cc2)s1 | 26.6
COC(=O)C(CC(C)C)NC(=O)C(C)NC(=O)C(Cc1ccc(OCc2ccccc2)cc1)NC(=O)C(COCc1ccccc1)NC(=O)OC(C)(C)C (stereo not drawn) (Boc-S(Bn)Y(Bn)AL-OMe; configuration not given here) | > 100
CCn1c(-c2ccccc2)cs/c1=N\C(P(=O)(O)O)P(=O)(O)O | > 100
Cc1ccc(-n2cnc(C(=N)C#N)c2N)cc1 | > 100
COC(=O)/C=C(\C(=O)OC)C1C(=O)Oc2c(C)c(=O)c3ccccc3n21 (stereo not drawn) | > 100
O=C(O)c1nnsc1-c1ccc(-c2snnc2C(=O)O)cc1 | > 100
CC(=O)c1ccccc1NP(=O)(c1ccccc1)c1ccccc1 | > 100

test system: UACC-257 melanoma; test: DTP human tumour cell line panel, 48 h

SMILES | TGI [µM]
CCN(CC)Cc1ccc(C(=S)Nc2ccc(Cl)cc2)s1 | 18.1
CCn1c(-c2ccccc2)cs/c1=N\C(P(=O)(O)O)P(=O)(O)O | > 100
Cc1ccc(-n2cnc(C(=N)C#N)c2N)cc1 | > 100
COC(=O)/C=C(\C(=O)OC)C1C(=O)Oc2c(C)c(=O)c3ccccc3n21 (stereo not drawn) | > 100
O=C(O)c1nnsc1-c1ccc(-c2snnc2C(=O)O)cc1 | > 100
CC(=O)c1ccccc1NP(=O)(c1ccccc1)c1ccccc1 | > 100

test system: A549 NSCLC; test: DTP human tumour cell line panel, 48 h

SMILES | TGI [µM]
CCN(CC)Cc1ccc(C(=S)Nc2ccc(Cl)cc2)s1 | 25.4
COC(=O)C(CC(C)C)NC(=O)C(C)NC(=O)C(Cc1ccc(OCc2ccccc2)cc1)NC(=O)C(COCc1ccccc1)NC(=O)OC(C)(C)C (stereo not drawn) (Boc-S(Bn)Y(Bn)AL-OMe; configuration not given here) | > 100
CCn1c(-c2ccccc2)cs/c1=N\C(P(=O)(O)O)P(=O)(O)O | > 100
Cc1ccc(-n2cnc(C(=N)C#N)c2N)cc1 | > 100
COC(=O)/C=C(\C(=O)OC)C1C(=O)Oc2c(C)c(=O)c3ccccc3n21 (stereo not drawn) | > 100
O=C(O)c1nnsc1-c1ccc(-c2snnc2C(=O)O)cc1 | > 100
CC(=O)c1ccccc1NP(=O)(c1ccccc1)c1ccccc1 | > 100

test system: NCI/ADR-RES ovarian; test: DTP human tumour cell line panel, 48 h

SMILES | TGI [µM]
CCN(CC)Cc1ccc(C(=S)Nc2ccc(Cl)cc2)s1 | 25
COC(=O)C(CC(C)C)NC(=O)C(C)NC(=O)C(Cc1ccc(OCc2ccccc2)cc1)NC(=O)C(COCc1ccccc1)NC(=O)OC(C)(C)C (stereo not drawn) (Boc-S(Bn)Y(Bn)AL-OMe; configuration not given here) | > 100
CCn1c(-c2ccccc2)cs/c1=N\C(P(=O)(O)O)P(=O)(O)O | > 100
Cc1ccc(-n2cnc(C(=N)C#N)c2N)cc1 | > 100
COC(=O)/C=C(\C(=O)OC)C1C(=O)Oc2c(C)c(=O)c3ccccc3n21 (stereo not drawn) | > 100
O=C(O)c1nnsc1-c1ccc(-c2snnc2C(=O)O)cc1 | > 100
CC(=O)c1ccccc1NP(=O)(c1ccccc1)c1ccccc1 | > 100

test system: MDA-MB-435; test: DTP human tumour cell line panel, 48 h

SMILES | TGI [µM]
CCN(CC)Cc1ccc(C(=S)Nc2ccc(Cl)cc2)s1 | 22.7
COC(=O)C(CC(C)C)NC(=O)C(C)NC(=O)C(Cc1ccc(OCc2ccccc2)cc1)NC(=O)C(COCc1ccccc1)NC(=O)OC(C)(C)C (stereo not drawn) (Boc-S(Bn)Y(Bn)AL-OMe; configuration not given here) | > 100
CCn1c(-c2ccccc2)cs/c1=N\C(P(=O)(O)O)P(=O)(O)O | > 100
Cc1ccc(-n2cnc(C(=N)C#N)c2N)cc1 | > 100
COC(=O)/C=C(\C(=O)OC)C1C(=O)Oc2c(C)c(=O)c3ccccc3n21 (stereo not drawn) | > 100
O=C(O)c1nnsc1-c1ccc(-c2snnc2C(=O)O)cc1 | > 100
CC(=O)c1ccccc1NP(=O)(c1ccccc1)c1ccccc1 | > 100

test system: SF-295 CNS; test: DTP human tumour cell line panel, 48 h

SMILES | TGI [µM]
CCN(CC)Cc1ccc(C(=S)Nc2ccc(Cl)cc2)s1 | 25.2
COC(=O)C(CC(C)C)NC(=O)C(C)NC(=O)C(Cc1ccc(OCc2ccccc2)cc1)NC(=O)C(COCc1ccccc1)NC(=O)OC(C)(C)C (stereo not drawn) (Boc-S(Bn)Y(Bn)AL-OMe; configuration not given here) | > 100
CCn1c(-c2ccccc2)cs/c1=N\C(P(=O)(O)O)P(=O)(O)O | > 100
Cc1ccc(-n2cnc(C(=N)C#N)c2N)cc1 | > 100
COC(=O)/C=C(\C(=O)OC)C1C(=O)Oc2c(C)c(=O)c3ccccc3n21 (stereo not drawn) | > 100
O=C(O)c1nnsc1-c1ccc(-c2snnc2C(=O)O)cc1 | > 100
CC(=O)c1ccccc1NP(=O)(c1ccccc1)c1ccccc1 | > 100

test system: SNB-19 CNS; test: DTP human tumour cell line panel, 48 h

SMILES | TGI [µM]
CCN(CC)Cc1ccc(C(=S)Nc2ccc(Cl)cc2)s1 | 31.6
COC(=O)C(CC(C)C)NC(=O)C(C)NC(=O)C(Cc1ccc(OCc2ccccc2)cc1)NC(=O)C(COCc1ccccc1)NC(=O)OC(C)(C)C (stereo not drawn) (Boc-S(Bn)Y(Bn)AL-OMe; configuration not given here) | > 100
CCn1c(-c2ccccc2)cs/c1=N\C(P(=O)(O)O)P(=O)(O)O | > 100
Cc1ccc(-n2cnc(C(=N)C#N)c2N)cc1 | > 100
COC(=O)/C=C(\C(=O)OC)C1C(=O)Oc2c(C)c(=O)c3ccccc3n21 (stereo not drawn) | > 100
O=C(O)c1nnsc1-c1ccc(-c2snnc2C(=O)O)cc1 | > 100
CC(=O)c1ccccc1NP(=O)(c1ccccc1)c1ccccc1 | > 100
